Laboratory results as given in ChEMBL document CHEMBL1134712, “2-Aryl indole NK1 receptor antagonists: optimisation of indole substitution” (Bioorg Med Chem Lett, 2001).

Tests used:
Substance-P receptor = Substance-P receptor (Homo sapiens, UniProt P25103); test: Concentration required for displacement of [125I]-labeled substance P from cloned hNK1 receptor expressed in CHO cells; format: cell-based
[1] = Plasma clearance rate determined in rats; format: ADME, organism-based; conditions: rat, read-out: Clearance rate
[2] = Percent oral bioavailability determined in rats; format: ADME, organism-based; conditions: rat, in vivo, read-out: Bioavailabiility
Rattus norvegicus [3] = organism: Rattus norvegicus; test: Systemic AUC was determined by pharmacokinetic study conducted in portal vein cannulated rats; format: ADME, organism-based; conditions: in vivo
Rattus norvegicus [4] = organism: Rattus norvegicus; test: Hepatic portal AUC was determined by pharmacokinetic study conducted in portal vein cannulated rats; format: ADME, organism-based; conditions: in vivo
Gerbillinae [5] = test: In vivo inhibitory dose determined in the gerbil foot-tapping assay after intravenous administration; format: functional; conditions: read-out: ID50 (the source's name)
Gerbillinae [6] = test: Percent inhibition of foot-tapping at 1 mg/kg, iv after pre-treatment time of 2 hr […]; format: functional
Gerbillinae [7] = test: Percent inhibition of gerbil foot-tapping at 1 mg/kg, iv immediately following pre-treatment […]; format: functional
Gerbillinae [8] = test: Percent inhibition of gerbil foot-tapping at 1 mg/kg, iv after pre-treatment time of 2 hr; format: functional

Substance-P receptor, sequence (P25103 whole entry): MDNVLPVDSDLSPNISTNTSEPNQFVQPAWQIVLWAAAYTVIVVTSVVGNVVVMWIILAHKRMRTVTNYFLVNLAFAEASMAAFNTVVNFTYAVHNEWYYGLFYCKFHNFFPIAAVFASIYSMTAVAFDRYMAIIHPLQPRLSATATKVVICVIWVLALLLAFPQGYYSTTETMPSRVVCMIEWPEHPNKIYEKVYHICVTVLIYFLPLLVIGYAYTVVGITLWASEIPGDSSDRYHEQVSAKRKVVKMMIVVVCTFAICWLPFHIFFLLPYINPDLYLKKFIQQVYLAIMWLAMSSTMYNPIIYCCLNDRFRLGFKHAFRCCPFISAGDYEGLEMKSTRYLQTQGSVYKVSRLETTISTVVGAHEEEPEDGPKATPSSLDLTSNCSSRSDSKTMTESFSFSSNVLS

| Structure (SMILES) | IC50 (Substance-P receptor) [nM] | other results |
| --- | --- | --- |
| Cn1c(-c2ccc(Cl)cc2)c(CCC(=O)N2CCC(O)(Cc3ccccc3)CC2)c2nc(Cl)ccc21 | 2.6 |  |
| O=C(CCc1c(-c2ccc(Cl)cc2)nc2ccc(Cl)cn12)N1CCC(O)(Cc2ccccc2)CC1 | 0.78 |  |
| COc1ccccc1N1CCN(C(=O)CCc2c(-c3ccc(Cl)cc3)[nH]c3cccc(Cl)c23)CC1 | 950 |  |
| C=Cc1ccc2c(c1)c(CCC(=O)N1CCC(O)(Cc3ccccc3)CC1)c(-c1ccc(Cl)cc1)n2C | 0.27 |  |
| COc1ccccc1N1CCN(C(=O)CCc2c(-c3ccccc3)[nH]c3ccc(Cl)cc23)CC1 | 5.6 |  |
| Cn1c(-c2ccc(Cl)cc2)c(CCC(=O)N2CCC(O)(Cc3ccccc3)CC2)c2cc(-c3ccccn3)ccc21 | 1.7 |  |
| COc1ccccc1N1CCN(C(=O)CCc2c(-c3ccc(Cl)cc3)[nH]c3ccc(OC(F)(F)F)cc23)CC1 | 8.9 |  |
| Cn1c(-c2ccc(Cl)cc2)c(CCC(=O)N2CCC(O)(Cc3ccccc3)CC2)c2cc(Br)ccc21 | 0.22 |  |
| Cn1c(-c2ccc(Cl)cc2)c(CCC(=O)N2CCC(O)(Cc3ccccc3)CC2)c2cc(-c3ccco3)ccc21 | 0.79 |  |
| Cn1c(-c2ccc(Cl)cc2)c(CCC(=O)N2CCC(O)(Cc3ccccc3)CC2)c2cc(Cl)ccc21 | 0.16 | clearance [1]: 31 mL/min/kg; bioavailability [2]: 2.3%; AUC (Rattus norvegicus [3]): < 4 ng·h/mL; AUC (Rattus norvegicus [4]): 24.7 ng·h/mL; ED50 (Gerbillinae [5]): 0.3 mg/kg |
| Cn1c(-c2ccc(Cl)cc2)c(CCC(=O)N2CCC(O)(Cc3ccccc3)CC2)c2cc(-c3cccnc3)ccc21 | 5.5 |  |
| Cn1c(-c2ccc(Cl)cc2)c(CCC(=O)N2CCC(O)(Cc3ccccc3)CC2)c2cc(N3CCCCC3)ccc21 | 3.3 |  |
| COc1ccccc1N1CCN(C(=O)CCc2c(-c3ccc(Cl)cc3)[nH]c3ccc(C)cc23)CC1 | 0.6 |  |
| Cn1c(-c2ccc(Cl)cc2)c(CCC(=O)N2CCC(O)(Cc3ccccc3)CC2)c2cnccc21 | 41 |  |
| COc1ccccc1N1CCN(C(=O)CCc2c(-c3ccc(Cl)cc3)[nH]c3cc(Cl)ccc23)CC1 | 4.9 |  |
| Cn1c(-c2ccc(Cl)cc2)c(CCC(=O)N2CCC(O)(Cc3ccccc3)CC2)c2cc(Cl)ncc21 | 0.22 |  |
| Cn1c(-c2ccc(Cl)cc2)c(CCC(=O)N2CCC(O)(Cc3ccccc3)CC2)c2cc(N3CCOCC3)ccc21 | 6.3 |  |
| COc1ccccc1N1CCN(C(=O)CCc2c(-c3ccc(Br)cc3)[nH]c3ccc(C)cc23)CC1 | 1 |  |
| Cn1c(-c2ccc(Cl)cc2)c(CCC(=O)N2CCC(O)(Cc3ccccc3)CC2)c2cc(Cl)cnc21 | 0.15 | AUC (Rattus norvegicus [3]): 8 ng·h/mL; AUC (Rattus norvegicus [4]): 96.8 ng·h/mL; inhibition in vivo at 1 mg/kg (Gerbillinae [6]): 10%; inhibition in vivo at 1 mg/kg (Gerbillinae [7]): 100% |
| Cn1c(-c2ccc(Cl)cc2)c(CCC(=O)N2CCC(O)(Cc3ccccc3)CC2)c2cc(-n3cccc3)ccc21 | 2.3 |  |
| COc1ccccc1N1CCN(C(=O)CCc2c(-c3ccc(Cl)cc3)[nH]c3cc(Cl)cc(Cl)c23)CC1 | 570 |  |
| COc1ccccc1N1CCN(C(=O)CCc2c(-c3ccc(Cl)cc3)[nH]c3ccc(Cl)cc23)CC1 | 0.89 |  |
| COc1ccccc1N1CCN(C(=O)CCc2c(-c3ccccc3)[nH]c3ccc(F)cc23)CC1 | 87 |  |
| CC(=O)c1ccc2c(c1)c(CCC(=O)N1CCC(O)(Cc3ccccc3)CC1)c(-c1ccc(Cl)cc1)n2C | 0.19 | inhibition in vivo at 1 mg/kg (Gerbillinae [8]): 14% |
| COc1ccccc1N1CCN(C(=O)CCc2c(-c3ccc(Cl)cc3)[nH]c3ccccc23)CC1 | 31 |  |
| COc1ccccc1N1CCN(C(=O)CCc2c(-c3ccc(Cl)cc3)[nH]c3c(Cl)cc(Cl)cc23)CC1 | 14 |  |
| Cn1c(-c2ccc(Cl)cc2)c(CCC(=O)N2CCC(O)(Cc3ccccc3)CC2)c2cc(-c3ccncc3)ccc21 | 5.5 |  |
